# Reference: the supplement of paper PMC11061612
# Legend:
# Assay in all cases: Bliss excess, mean over the matrix (fraction); higher = more synergy
# CAL-72 (Osteosarcoma) = tested on: CAL-72 (Osteosarcoma)
# Outline: (§1)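 Cell lines in DMEM/F12 or RPMI with 10% FBS were plated in 1536-well plates, held 24 hours at 37°C, 5% CO2, then given two-drug dose matrices for 72 hours (DMSO typically 0.2%). Viability was read by CellTiter-Glo 2.0 luminescence and scaled as inhibition from 0 (vehicle wells) to 1 (blank wells). Combination Emax is the second-highest inhibition in the matrix; Bliss excess is observed combination effect minus expected EA + EB − EA·EB, EA and EB being single-agent effects.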
# [1] = tested on: HeLa (Cervical Carcinoma)
# Outline: as §1
# [2] = tested on: BE-13 (T-Lymphoblastic Leukemia)
# Outline: as §1
# [3] = tested on: HuCCT1 (Biliary Tract Carcinoma)
# Outline: as §1
# [4] = tested on: L-428 (Hodgkin's Lymphoma)
# Outline: as §1
# [5] = tested on: HH (T-Cell Non-Hodgkin's Lymphoma)
# Outline: as §1
# EW-11 (Ewing's Sarcoma) = tested on: EW-11 (Ewing's Sarcoma)
# Outline: as §1
# NCI-H2722 (Mesothelioma) = tested on: NCI-H2722 (Mesothelioma)
# Outline: as §1
# MPP-89 (Mesothelioma) = tested on: MPP-89 (Mesothelioma)
# Outline: as §1
# [6] = tested on: ALL-PO (B-Lymphoblastic Leukemia)
# Outline: as §1
# [7] = tested on: OV-56 (Ovarian Carcinoma)
# Outline: as §1
# [8] = tested on: HuH-7 (Hepatocellular Carcinoma)
# Outline: as §1
# NCI-H2052 (Mesothelioma) = tested on: NCI-H2052 (Mesothelioma)
# Outline: as §1
# GAMG (Glioblastoma) = tested on: GAMG (Glioblastoma)
# Outline: as §1
# [9] = tested on: LS-123 (Colorectal Carcinoma)
# Outline: as §1
# [10] = tested on: LCLC-97TM1 (Non-Small Cell Lung Carcinoma)
# Outline: as §1
# [11] = tested on: NCI-H524 (Small Cell Lung Carcinoma)
# Outline: as §1
# BE2-M17 (Neuroblastoma) = tested on: BE2-M17 (Neuroblastoma)
# Outline: as §1
# [12] = tested on: SNU-449 (Hepatocellular Carcinoma)
# Outline: as §1
# BPH-1 (Non-Cancerous) = tested on: BPH-1 (Non-Cancerous)
# Outline: as §1
SMILES,Bliss excess (CAL-72 (Osteosarcoma)),Bliss excess [1],Bliss excess [2],Bliss excess [3],Bliss excess [4],Bliss excess [5],Bliss excess (EW-11 (Ewing's Sarcoma)),Bliss excess (NCI-H2722 (Mesothelioma)),Bliss excess (MPP-89 (Mesothelioma)),Bliss excess [6],Bliss excess [7],Bliss excess [8],Bliss excess (NCI-H2052 (Mesothelioma)),Bliss excess (GAMG (Glioblastoma)),Bliss excess [9],Bliss excess [10],Bliss excess [11],Bliss excess (BE2-M17 (Neuroblastoma)),Bliss excess [12],Bliss excess (BPH-1 (Non-Cancerous))
"C=CCn1c(=O)c2cnc(Nc3ccc(N4CCN(C)CC4)cc3)nc2n1-c1cccc(C(C)(C)O)n1 [AZD1775] + O=C(c1cc(Cc2n[nH]c(=O)c3ccccc23)ccc1F)N1CCN(C(=O)C2CC2)CC1 [Olaparib] (first compound max 1 µM, partner max 10 µM)",-0.0871,0.0346,-0.0409,-0.0149,-0.0252,-0.0449,-0.121,-0.0143,-0.0018,0.0063,-0.0576,-0.0107,-0.0602,0.0147,-0.0694,-0.0833,0.0424,-0.0486,-0.0418,-0.0199
"CCN(CCO)CCCOc1ccc2c(Nc3cc(CC(=O)Nc4cccc(F)c4)[nH]n3)ncnc2c1 [AZD2811] + C=CCn1c(=O)c2cnc(Nc3ccc(N4CCN(C)CC4)cc3)nc2n1-c1cccc(C(C)(C)O)n1 [AZD1775] (first compound max 1 µM, partner max 1 µM)",-0.0866,0.0278,-0.0298,-0.0344,0.0106,-0.0179,0.0003,0.023,-0.0173,0.0382,-0.0152,-0.0232,-0.0485,0.0224,-0.0373,0.033,-0.0253,0.0436,-0.0028,-0.0007
"CCN(CCO)CCCOc1ccc2c(Nc3cc(CC(=O)Nc4cccc(F)c4)[nH]n3)ncnc2c1 [AZD2811] + C[C@@H]1COCCN1C2=NC(=NC(=C2)C3(CC3)[S@](=N)(=O)C)C4=C5C=CNC5=NC=C4 [AZD6738] (first compound max 1 µM, 7x7, partner max 10 µM)",-0.0863,-0.0743,-0.148,-0.0767,0.0145,-0.033,-0.0229,0.006,-0.0823,-0.0288,-0.11,-0.0453,-0.0207,-0.0399,-0.0258,0.0116,-0.0399,0.0002,-0.0536,-0.0111
"CCN(CCO)CCCOc1ccc2c(Nc3cc(CC(=O)Nc4cccc(F)c4)[nH]n3)ncnc2c1 [AZD2811] + O=C(c1cc(Cc2n[nH]c(=O)c3ccccc23)ccc1F)N1CCN(C(=O)C2CC2)CC1 [Olaparib] (first compound max 1 µM, 7x7, partner max 10 µM)",0.0343,-0.0154,-0.0163,-0.0187,0.0277,-0.0353,0.0191,-0.016,-0.0334,0.0133,-0.0081,-0.072,-0.0042,-0.0041,0.0144,0.0148,-0.0602,0.0317,-0.0368,0.0466
"COc1nnc2ccc(N3CCC(c4ccc(OCCN5CCN(C)C(=O)[C@H]5C)cc4)CC3)nn12 [AZD5153] + C=CCn1c(=O)c2cnc(Nc3ccc(N4CCN(C)CC4)cc3)nc2n1-c1cccc(C(C)(C)O)n1 [AZD1775] (first compound max 1 µM, partner max 1 µM)",-0.0524,-0.072,-0.0879,-0.0778,-0.0411,-0.0442,-0.0976,0.0139,-0.0669,-0.0198,-0.0105,0.0129,-0.0882,-0.0516,-0.0445,-0.0845,-0.0337,0.0026,-0.0033,0.0246
"COc1nnc2ccc(N3CCC(c4ccc(OCCN5CCN(C)C(=O)[C@H]5C)cc4)CC3)nn12 [AZD5153] + CC1(C)CCC(CN2CCN(c3ccc(C(=O)NS(=O)(=O)c4ccc(NCC5CCOCC5)c([N+](=O)[O-])c4)c(Oc4cnc5[nH]ccc5c4)c3)CC2)=C(c2ccc(Cl)cc2)C1 [Venetoclax] (first compound max 1 µM, 7x7, partner max 1 µM)",-0.0305,-0.0574,-0.0428,-0.0517,-0.082,-0.065,-0.117,-0.0485,-0.0166,0.058,-0.062,-0.0987,-0.0748,-0.01,0.0205,-0.0277,-0.037,0.0308,-0.0308,-0.0574
"COc1nnc2ccc(N3CCC(c4ccc(OCCN5CCN(C)C(=O)[C@H]5C)cc4)CC3)nn12 [AZD5153] + CCN(CCO)CCCOc1ccc2c(Nc3cc(CC(=O)Nc4cccc(F)c4)[nH]n3)ncnc2c1 [AZD2811] (first compound max 1 µM, 7x7, partner max 1 µM)",-0.012,-0.0457,-0.0637,-0.0331,0.0085,0.0055,-0.06,-0.0263,-0.0396,-0.0134,-0.0288,-0.051,-0.0479,0.0004,-0.0004,-0.0325,-0.0138,0.102,-0.0179,-0.0252
"COc1nnc2ccc(N3CCC(c4ccc(OCCN5CCN(C)C(=O)[C@H]5C)cc4)CC3)nn12 [AZD5153] + C[C@@H]1COCCN1C2=NC(=NC(=C2)C3(CC3)[S@](=N)(=O)C)C4=C5C=CNC5=NC=C4 [AZD6738] (first compound max 1 µM, 7x7, partner max 10 µM)",-0.0087,-0.0406,-0.0227,-0.046,0.009,-0.0324,0.0006,0.0378,0.0648,0.0106,0.0824,0.113,-0.0497,0.04,0.0091,-0.033,0.0142,0.0293,-0.0048,0.0343
"COc1nnc2ccc(N3CCC(c4ccc(OCCN5CCN(C)C(=O)[C@H]5C)cc4)CC3)nn12 [AZD5153] + Cc1c2c(nn1C)CSCc1cc(n(C)n1)CSc1cc(c3ccccc3c1)OCCCc1c(C(=O)O)n(C)c3c-2c(Cl)ccc13 [AZD5991] (first compound max 1 µM, 7x7, partner max 1 µM)",0.0287,0.0151,0.0075,-0.0543,-0.023,0.0776,0.111,-0.016,-0.0399,0.0091,-0.0093,0.0546,-0.018,-0.0043,-0.0249,-0.017,0.0723,0.0101,-0.0368,-0.0093
"COc1nnc2ccc(N3CCC(c4ccc(OCCN5CCN(C)C(=O)[C@H]5C)cc4)CC3)nn12 [AZD5153] + Cn1cnc2c(F)c(Nc3ccc(Br)cc3Cl)c(C(=O)NOCCO)cc21 [Selumetinib] (first compound max 1 µM, 7x7, partner max 10 µM)",-0.0414,-0.0409,-0.0209,0.0453,-0.0409,-0.0817,-0.0633,-0.0597,0.0192,-0.0054,-0.0232,0.006,0.0301,-0.0192,0.0261,-0.0694,-0.0216,0.0139,-0.014,-0.0385
"Cc1c2c(nn1C)CSCc1cc(n(C)n1)CSc1cc(c3ccccc3c1)OCCCc1c(C(=O)O)n(C)c3c-2c(Cl)ccc13 [AZD5991] + C1CN(CCC1(C(=O)N[C@@H](CCO)C2=CC=C(C=C2)Cl)N)C3=NC=NC4=C3C=CN4 [Capivasertib] (first compound max 1 µM, 7x7, partner max 3 µM)",0.005,0.0059,0.0349,-0.0405,-0.0007,0.0176,-0.02,-0.0147,0.0003,0.0327,-0.0006,-0.0116,-0.0083,-0.0239,0.0203,-0.0061,0.014,-0.0068,-0.0238,0.0123
"Cc1c2c(nn1C)CSCc1cc(n(C)n1)CSc1cc(c3ccccc3c1)OCCCc1c(C(=O)O)n(C)c3c-2c(Cl)ccc13 [AZD5991] + C=CCn1c(=O)c2cnc(Nc3ccc(N4CCN(C)CC4)cc3)nc2n1-c1cccc(C(C)(C)O)n1 [AZD1775] (first compound max 1 µM, partner max 1 µM)",0.0098,-0.0224,-0.0097,0.0676,0.0145,-0.0046,-0.0011,-0.016,-0.0732,0.0023,0.0126,-0.0259,-0.0875,-0.0528,-0.0197,-0.0141,-0.0274,-0.03,0.0317,-0.0071
"Cc1c2c(nn1C)CSCc1cc(n(C)n1)CSc1cc(c3ccccc3c1)OCCCc1c(C(=O)O)n(C)c3c-2c(Cl)ccc13 [AZD5991] + C[C@@H]1COCCN1C2=NC(=NC(=C2)C3(CC3)[S@](=N)(=O)C)C4=C5C=CNC5=NC=C4 [AZD6738] (first compound max 1 µM, 7x7, partner max 10 µM)",0.0213,0.0217,0.0135,0.0206,0.023,0.0317,0.0217,0.0224,-0.0426,0.0236,0.0293,-0.0057,0.039,0.0116,-0.0046,0.0401,-0.0395,0.0574,0.0175,0.0039
"Cc1c2c(nn1C)CSCc1cc(n(C)n1)CSc1cc(c3ccccc3c1)OCCCc1c(C(=O)O)n(C)c3c-2c(Cl)ccc13 [AZD5991] + C[C@@H](Nc1cc(F)cc(F)c1)c1cc(C(=O)N(C)C)cc2c(=O)cc(N3CCOCC3)oc12 [AZD8186] (first compound max 1 µM, 7x7, partner max 3 µM)",-0.0149,0.0387,-0.109,0.021,-0.0085,0.105,-0.0009,-0.0434,0.0083,-0.0248,0.017,-0.007,0.0011,-0.0458,-0.0006,-0.003,-0.0289,-0.0355,-0.078,0.0078
